Assay results published in US4731451A, “N-((2-oxo-3(2H)benzothiazolyl)methyl)-2-chloroacetanilides” (Monsanto Company, priority 1980, dated 1988).

Assays:
Format in all cases: in vivo
Barnyardgrass [1] = test: Pre-emergent herbicidal activity (Table II); settings: 2-3 weeks
Procedure: (§1) The pre-emergence tests are conducted as follows:
(§2) A good grade of top soil is placed in aluminum pans and compacted to a depth of three-eighths to one-half inch from the top of the pan. On the top of the soil is placed a predetermined number of seeds or vegetative propagules of various plant species. The soil required to level fill the pans after seeding or adding vegetative propagules is weighed into a pan. A known amount of the active ingredient applied in a solvent or as a wettable powder suspension and the soil are thoroughly mixed, and used as a cover layer for prepared pans. After treatment, the pans are moved into a greenhouse bench where they are watered from below as needed to give adequate moisture for germination and growth.
(§3) Approximately 2-3 weeks after seeding and treating, the plants are observed and the results recorded. The herbicidal rating is obtained by means of fixed scale based on the percent injury of each plant species. The ratings are defined as follows: […]
(§4) The plant species utilized in one set of tests, the data for which are shown in Table II, are identified by letter in accordance with the following legend: […]

Canada Thistle = test: Pre-emergent herbicidal activity (Table II); settings: 2-3 weeks
Procedure: as §1, §2, §3, §4

Cocklebur [2] = test: Pre-emergent herbicidal activity (Table II); settings: 2-3 weeks
Procedure: as §1, §2, §3, §4

Downy Brome [3] = test: Pre-emergent herbicidal activity (Table II); settings: 2-3 weeks
Procedure: as §1, §2, §3, §4

Johnsongrass = test: Pre-emergent herbicidal activity (Table II); settings: 2-3 weeks
Procedure: as §1, §2, §3, §4

Lambsquarters [4] = test: Pre-emergent herbicidal activity (Table II); settings: 2-3 weeks
Procedure: as §1, §2, §3, §4

Morningglory [5] = test: Pre-emergent herbicidal activity (Table II); settings: 2-3 weeks
Procedure: as §1, §2, §3, §4

Quackgrass = test: Pre-emergent herbicidal activity (Table II); settings: 2-3 weeks
Procedure: as §1, §2, §3, §4

Smartweed [6] = test: Pre-emergent herbicidal activity (Table II); settings: 2-3 weeks
Procedure: as §1, §2, §3, §4

Velvetleaf [7] = test: Pre-emergent herbicidal activity (Table II); settings: 2-3 weeks
Procedure: as §1, §2, §3, §4

Yellow Nutsedge = test: Pre-emergent herbicidal activity (Table II); settings: 2-3 weeks
Procedure: as §1, §2, §3, §4

Barnyardgrass [8] = test: Pre-emergent herbicidal activity (Table III)
Procedure: as §1, §2, §3
(§5) The compounds were further tested by utilizing the above procedure on the following plant species: […]

Cocklebur [9] = test: Pre-emergent herbicidal activity (Table III)
Procedure: as §1, §2, §3, §5

Crabgrass = test: Pre-emergent herbicidal activity (Table III)
Procedure: as §1, §2, §3, §5

Downy Brome [10] = test: Pre-emergent herbicidal activity (Table III)
Procedure: as §1, §2, §3, §5

Hemp Sesbania = test: Pre-emergent herbicidal activity (Table III)
Procedure: as §1, §2, §3, §5

Lambsquarters [11] = test: Pre-emergent herbicidal activity (Table III)
Procedure: as §1, §2, §3, §5

Morningglory [12] = test: Pre-emergent herbicidal activity (Table III)
Procedure: as §1, §2, §3, §5

Panicum = test: Pre-emergent herbicidal activity (Table III)
Procedure: as §1, §2, §3, §5

Rice = test: Pre-emergent herbicidal activity (Table III)
Procedure: as §1, §2, §3, §5

Smartweed [13] = test: Pre-emergent herbicidal activity (Table III)
Procedure: as §1, §2, §3, §5

Sorghum = test: Pre-emergent herbicidal activity (Table III)
Procedure: as §1, §2, §3, §5

Soybean = test: Pre-emergent herbicidal activity (Table III)
Procedure: as §1, §2, §3, §5

Sugarbeet = test: Pre-emergent herbicidal activity (Table III)
Procedure: as §1, §2, §3, §5

Velvetleaf [14] = test: Pre-emergent herbicidal activity (Table III)
Procedure: as §1, §2, §3, §5

Wheat = test: Pre-emergent herbicidal activity (Table III)
Procedure: as §1, §2, §3, §5

Wild Buckwheat = test: Pre-emergent herbicidal activity (Table III)
Procedure: as §1, §2, §3, §5
Also: ranges in brackets are in %.

`CCc1cccc(CC)c1N(Cn1c(=O)sc2ccccc21)C(=O)CCl` [Example 3, N--[(2-oxo-3(2H)--benzothiazolyl)methyl]-2'-6'-diethyl-2-chloroacetanilide] was tested, and the Herbicidal rating (Barnyardgrass [1]; 5.6 kg/ha) was 3 (75-100), the Herbicidal rating (Barnyardgrass [1]; 11.2 kg/ha) was 3 (75-100) and the Herbicidal rating (Canada Thistle; 5.6 kg/ha) was 0 (0-24). For the same compound, the Herbicidal rating (Canada Thistle; 11.2 kg/ha) was 0 (0-24), the Herbicidal rating (Cocklebur [2]; 5.6 kg/ha) was 0 (0-24) and the Herbicidal rating (Cocklebur [2]; 11.2 kg/ha) was 0 (0-24). The Herbicidal rating (Downy Brome [3]; 5.6 kg/ha) was 1 (25-49), the Herbicidal rating (Downy Brome [3]; 11.2 kg/ha) was 1 (25-49) and the Herbicidal rating (Johnsongrass; 5.6 kg/ha) was 0 (0-24). The Herbicidal rating (Johnsongrass; 11.2 kg/ha) was 0 (0-24), the Herbicidal rating (Lambsquarters [4]; 5.6 kg/ha) was 0 (0-24) and the Herbicidal rating (Lambsquarters [4]; 11.2 kg/ha) was 0 (0-24). The Herbicidal rating (Morningglory [5]; 5.6 kg/ha) was 0 (0-24), the Herbicidal rating (Morningglory [5]; 11.2 kg/ha) was 0 (0-24) and the Herbicidal rating (Quackgrass; 5.6 kg/ha) was 0 (0-24). For the same compound, the Herbicidal rating (Quackgrass; 11.2 kg/ha) was 1 (25-49), the Herbicidal rating (Smartweed [6]; 5.6 kg/ha) was 0 (0-24) and the Herbicidal rating (Smartweed [6]; 11.2 kg/ha) was 0 (0-24). The Herbicidal rating (Velvetleaf [7]; 5.6 kg/ha) was 0 (0-24), the Herbicidal rating (Velvetleaf [7]; 11.2 kg/ha) was 0 (0-24) and the Herbicidal rating (Yellow Nutsedge; 5.6 kg/ha) was 1 (25-49). For the same compound, the Herbicidal rating (Yellow Nutsedge; 11.2 kg/ha) was 1 (25-49), the Herbicidal rating (Barnyardgrass [8]; 0.28 kg/ha) was 3 (75-100) and the Herbicidal rating (Barnyardgrass [8]; 1.12 kg/ha) was 3 (75-100). For the same compound, the Herbicidal rating (Barnyardgrass [8]; 5.6 kg/ha) was 3 (75-100), the Herbicidal rating (Cocklebur [9]; 0.28 kg/ha) was 0 (0-24) and the Herbicidal rating (Cocklebur [9]; 1.12 kg/ha) was 0 (0-24). For the same compound, the Herbicidal rating (Cocklebur [9]; 5.6 kg/ha) was 0 (0-24), the Herbicidal rating (Crabgrass; 0.28 kg/ha) was 1 (25-49) and the Herbicidal rating (Crabgrass; 1.12 kg/ha) was 2 (50-74). For the same compound, the Herbicidal rating (Crabgrass; 5.6 kg/ha) was 3 (75-100), the Herbicidal rating (Downy Brome [10]; 0.28 kg/ha) was 0 (0-24) and the Herbicidal rating (Downy Brome [10]; 1.12 kg/ha) was 1 (25-49). The Herbicidal rating (Downy Brome [10]; 5.6 kg/ha) was 2 (50-74), the Herbicidal rating (Hemp Sesbania; 0.28 kg/ha) was 0 (0-24) and the Herbicidal rating (Hemp Sesbania; 1.12 kg/ha) was 0 (0-24). The Herbicidal rating (Hemp Sesbania; 5.6 kg/ha) was 0 (0-24), the Herbicidal rating (Lambsquarters [11]; 0.28 kg/ha) was 0 (0-24) and the Herbicidal rating (Lambsquarters [11]; 1.12 kg/ha) was 0 (0-24). For the same compound, the Herbicidal rating (Lambsquarters [11]; 5.6 kg/ha) was 0 (0-24), the Herbicidal rating (Morningglory [12]; 0.28 kg/ha) was 0 (0-24) and the Herbicidal rating (Morningglory [12]; 1.12 kg/ha) was 0 (0-24). For the same compound, the Herbicidal rating (Morningglory [12]; 5.6 kg/ha) was 0 (0-24), the Herbicidal rating (Panicum; 0.28 kg/ha) was 0 (0-24) and the Herbicidal rating (Panicum; 1.12 kg/ha) was 1 (25-49). For the same compound, the Herbicidal rating (Panicum; 5.6 kg/ha) was 3 (75-100), the Herbicidal rating (Rice; 0.28 kg/ha) was 1 (25-49) and the Herbicidal rating (Rice; 1.12 kg/ha) was 0 (0-24). The Herbicidal rating (Rice; 5.6 kg/ha) was 0 (0-24), the Herbicidal rating (Smartweed [13]; 0.28 kg/ha) was 0 (0-24) and the Herbicidal rating (Smartweed [13]; 1.12 kg/ha) was 1 (25-49). For the same compound, the Herbicidal rating (Smartweed [13]; 5.6 kg/ha) was 0 (0-24), the Herbicidal rating (Sorghum; 0.28 kg/ha) was 0 (0-24) and the Herbicidal rating (Sorghum; 1.12 kg/ha) was 0 (0-24). For the same compound, the Herbicidal rating (Sorghum; 5.6 kg/ha) was 0 (0-24), the Herbicidal rating (Soybean; 0.28 kg/ha) was 0 (0-24) and the Herbicidal rating (Soybean; 1.12 kg/ha) was 0 (0-24). For the same compound, the Herbicidal rating (Soybean; 5.6 kg/ha) was 0 (0-24), the Herbicidal rating (Sugarbeet; 0.28 kg/ha) was 0 (0-24) and the Herbicidal rating (Sugarbeet; 1.12 kg/ha) was 0 (0-24). The Herbicidal rating (Sugarbeet; 5.6 kg/ha) was 0 (0-24), the Herbicidal rating (Velvetleaf [14]; 0.28 kg/ha) was 0 (0-24) and the Herbicidal rating (Velvetleaf [14]; 1.12 kg/ha) was 0 (0-24). For the same compound, the Herbicidal rating (Velvetleaf [14]; 5.6 kg/ha) was 0 (0-24), the Herbicidal rating (Wheat; 0.28 kg/ha) was 0 (0-24) and the Herbicidal rating (Wheat; 1.12 kg/ha) was 0 (0-24). The Herbicidal rating (Wheat; 5.6 kg/ha) was 0 (0-24), the Herbicidal rating (Wild Buckwheat; 0.28 kg/ha) was 0 (0-24) and the Herbicidal rating (Wild Buckwheat; 1.12 kg/ha) was 0 (0-24). The Herbicidal rating (Wild Buckwheat; 5.6 kg/ha) was 0 (0-24).

For `CC1=C(N(Cn2c(=O)sc3ccc(Cl)cc32)C(=O)CCl)C(C)CCC1` (stereo not shown) [Example 6, N--[(5-chloro-2-oxo-3(2H)--benzothiazolyl)methyl]-N--(2,6-dimethyl-1-cyclohexen-1-yl)-2-chloroacetamide], the Herbicidal rating (Barnyardgrass [1]; 5.6 kg/ha) was 1 (25-49), the Herbicidal rating (Barnyardgrass [1]; 11.2 kg/ha) was 3 (75-100) and the Herbicidal rating (Canada Thistle; 5.6 kg/ha) was 0 (0-24). For the same compound, the Herbicidal rating (Canada Thistle; 11.2 kg/ha) was 1 (25-49), the Herbicidal rating (Cocklebur [2]; 5.6 kg/ha) was 0 (0-24) and the Herbicidal rating (Cocklebur [2]; 11.2 kg/ha) was 0 (0-24). The Herbicidal rating (Downy Brome [3]; 5.6 kg/ha) was 0 (0-24), the Herbicidal rating (Downy Brome [3]; 11.2 kg/ha) was 0 (0-24) and the Herbicidal rating (Johnsongrass; 5.6 kg/ha) was 0 (0-24). For the same compound, the Herbicidal rating (Johnsongrass; 11.2 kg/ha) was 0 (0-24), the Herbicidal rating (Lambsquarters [4]; 5.6 kg/ha) was 0 (0-24) and the Herbicidal rating (Lambsquarters [4]; 11.2 kg/ha) was 3 (75-100). The Herbicidal rating (Morningglory [5]; 5.6 kg/ha) was 0 (0-24), the Herbicidal rating (Morningglory [5]; 11.2 kg/ha) was 0 (0-24) and the Herbicidal rating (Quackgrass; 5.6 kg/ha) was 0 (0-24). The Herbicidal rating (Quackgrass; 11.2 kg/ha) was 1 (25-49), the Herbicidal rating (Smartweed [6]; 5.6 kg/ha) was 0 (0-24) and the Herbicidal rating (Smartweed [6]; 11.2 kg/ha) was 0 (0-24). The Herbicidal rating (Velvetleaf [7]; 5.6 kg/ha) was 0 (0-24), the Herbicidal rating (Velvetleaf [7]; 11.2 kg/ha) was 0 (0-24) and the Herbicidal rating (Yellow Nutsedge; 5.6 kg/ha) was 0 (0-24). For the same compound, the Herbicidal rating (Yellow Nutsedge; 11.2 kg/ha) was 0 (0-24), the Herbicidal rating (Barnyardgrass [8]; 1.12 kg/ha) was 0 (0-24) and the Herbicidal rating (Barnyardgrass [8]; 5.6 kg/ha) was 1 (25-49). The Herbicidal rating (Cocklebur [9]; 1.12 kg/ha) was 0 (0-24), the Herbicidal rating (Cocklebur [9]; 5.6 kg/ha) was 0 (0-24) and the Herbicidal rating (Crabgrass; 1.12 kg/ha) was 2 (50-74). For the same compound, the Herbicidal rating (Crabgrass; 5.6 kg/ha) was 3 (75-100), the Herbicidal rating (Downy Brome [10]; 1.12 kg/ha) was 0 (0-24) and the Herbicidal rating (Downy Brome [10]; 5.6 kg/ha) was 0 (0-24). For the same compound, the Herbicidal rating (Hemp Sesbania; 1.12 kg/ha) was 3 (75-100), the Herbicidal rating (Hemp Sesbania; 5.6 kg/ha) was 3 (75-100) and the Herbicidal rating (Lambsquarters [11]; 1.12 kg/ha) was 3 (75-100). The Herbicidal rating (Lambsquarters [11]; 5.6 kg/ha) was 1 (25-49), the Herbicidal rating (Morningglory [12]; 1.12 kg/ha) was 0 (0-24) and the Herbicidal rating (Morningglory [12]; 5.6 kg/ha) was 0 (0-24). The Herbicidal rating (Panicum; 1.12 kg/ha) was 0 (0-24), the Herbicidal rating (Panicum; 5.6 kg/ha) was 0 (0-24) and the Herbicidal rating (Rice; 1.12 kg/ha) was 1 (25-49). For the same compound, the Herbicidal rating (Rice; 5.6 kg/ha) was 0 (0-24), the Herbicidal rating (Smartweed [13]; 1.12 kg/ha) was 2 (50-74) and the Herbicidal rating (Smartweed [13]; 5.6 kg/ha) was 1 (25-49). The Herbicidal rating (Sorghum; 1.12 kg/ha) was 0 (0-24), the Herbicidal rating (Sorghum; 5.6 kg/ha) was 0 (0-24) and the Herbicidal rating (Soybean; 1.12 kg/ha) was 0 (0-24). The Herbicidal rating (Soybean; 5.6 kg/ha) was 0 (0-24), the Herbicidal rating (Sugarbeet; 1.12 kg/ha) was 1 (25-49) and the Herbicidal rating (Sugarbeet; 5.6 kg/ha) was 1 (25-49). The Herbicidal rating (Velvetleaf [14]; 1.12 kg/ha) was 0 (0-24), the Herbicidal rating (Velvetleaf [14]; 5.6 kg/ha) was 0 (0-24) and the Herbicidal rating (Wheat; 1.12 kg/ha) was 0 (0-24). The Herbicidal rating (Wheat; 5.6 kg/ha) was 0 (0-24), the Herbicidal rating (Wild Buckwheat; 1.12 kg/ha) was 0 (0-24) and the Herbicidal rating (Wild Buckwheat; 5.6 kg/ha) was 0 (0-24).
